Reference: patent publication US9730455B2, “Composition comprising a biological control agent and an insecticide” (Bayer CropScience AG, priority 2012, dated 2017)
Where two headings read alike, the source gives them in different places.

Key:
Type in all cases: in vivo
[1] = tested on: green peach aphid (Myzus persicae); experiment: Myzus persicae - spray test; conditions: foliar, 24 h, after 1 d, Chinese cabbage leaf disks, read-out: Efficacy in % after 1^d (mortality)
Method: (§1) Formula for the efficacy of the combination of two compounds • The expected efficacy of a given combination of two compounds is calculated as follows (see Colby, S.R., “Calculating Synergistic and antagonistic Responses of Herbicide Combinations”, Weeds 15, pp. 20-22, 1967): • If • X is the efficacy expressed in % mortality of the untreated control for test compound A at a concentration of m ppm respectively m g/ha, • Y is the efficacy expressed in % mortality of the untreated control for test compound B at a concentration of n ppm respectively n g/ha, • E is the efficacy expressed in % mortality of the untreated control using the mixture of A and B at m and n ppm respectively m and n g/ha, • then is
(§2) • Solvent: 78.0 parts by weight acetone • 1.5 parts by weight dimethylformamide • Emulsifier: alkylaryl polyglycol ether
To produce a suitable preparation of active compound, 1 part by weight of active compound is mixed with the stated amount of solvents and is diluted with water, containing an emulsifier concentration of 1000 ppm, to the desired concentration. To produce a suitable preparation of a spore suspension the spores are diluted with emulsifier containing water to the desired concentration. […]
After the specified period of time, mortality in % is determined. […] The mortality values determined thus are recalculated using the Colby-formula (see sheet 1).

[2] = tested on: two spotted spidermite (Tetranychus urticae), OP-resistant; experiment: Tetranychus urticae - spray test, OP-resistant; conditions: French beans
Method: as §1, §2
(§3) To produce a suitable preparation of active compound, 1 part by weight of active compound is mixed with the stated amount of solvents and is diluted with water, containing an emulsifier concentration of 1000 ppm, to the desired concentration. To produce a suitable preparation of a spore suspension the spores are diluted with emulsifier containing water to the desired concentration. Further test concentrations are prepared by dilution with emulsifier containing water.
French beans (Phaseolus vulgaris) which are heavily infested with all stages of the two spotted spidermite (Tetranychus urticae), are sprayed with a preparation of the active ingredient of the desired concentration.
After the specified period of time, mortality in % is determined. 100% means all spider mites have been killed and 0% means none of the spider mites have been killed. The mortality values determined thus are recalculated using the Colby-formula (see sheet 1).

[3] = tested on: fall armyworm larvae (Spodoptera frugiperda); experiment: Spodoptera frugiperda - spray test; conditions: maize leaf sections; for mortality at 3.75 g/ha: 3.75 g ai/ha
Method: as §1, §2, §3
Maize (Zea mais) leaf sections are sprayed with a preparation of the active ingredient of the desired concentration. Once dry, the leaf sections are infested with fall armyworm larvae (Spodoptera frugiperda).
After the specified period of time, mortality in % is determined. 100% means all caterpillars have been killed and 0% means none of the caterpillars have been killed. The mortality values determined thus are recalculated using the Colby-formula (see sheet 1).

[4] = tested on: mustard beetle larvae (Phaedon cochleariae); experiment: Phaedon cochleariae - spray test; conditions: foliar; for mortality at 0.8 g/ha: 0.8 g ai/ha, after 6 d
Method: as §1
• Solvent: 78.0 parts by weight of acetone • 1.5 parts by weight of dimethylformamide • Emulsifier: alkylaryl polyglycol ether
as §3
Chinese cabbage (Brassica pekinensis) leaf-disks are sprayed with a preparation of the active ingredient of the desired concentration. Once dry, the leaf disks are infested with mustard beetle larvae (Phaedon cochleariae).
After the specified period of time, mortality in % is determined. 100% means all beetle larvae have been killed and 0% means none of the beetle larvae have been killed. The mortality values determined thus are recalculated using the Colby-formula (see sheet 1).

[5] = 144 h, Chinese cabbage leaf disks, read-out: Efficacy in % after 6^d (mortality)

Compound: N#C/N=C1\SCCN1Cc1ccc(Cl)nc1 [Thiacloprid]
- mortality at 4 g/ha ([1]; 4 g ai/ha): 0%
- mortality at 20 g/ha ([2]; Tetranychus urticae, 48 h, 20 g ai/ha, after 2 d, read-out: Efficacy in % after 2^d (mortality)): 40%

Compound: CN1COCN(Cc2cnc(Cl)s2)/C1=N\[N+](=O)[O-] [Thiamethoxam]
- mortality at 0.8 g/ha ([1]; 0.8 g ai/ha): 0%

Compound: CN/C(=N\[N+](=O)[O-])NCc1cnc(Cl)s1 [Clothianidin]
- mortality at 20 g/ha ([3]; Spodoptera frugiperda, 144 h, 20 g ai/ha, after 6 d, read-out: Efficacy in % after 6^d (mortality)): 0%

Compound: CS/C(C)=N\OC(=O)N(C)SN(C)C(=O)O/N=C(\C)SC [Thiodicarb]
- mortality at 3.75 g/ha ([3]; Spodoptera frugiperda, 48 h, after 2 d, read-out: Efficacy in % after 2^d (mortality)): 0%
- mortality at 7.5 g/ha ([3]; Spodoptera frugiperda, 48 h, 7.5 g ai/ha, after 2 d, read-out: Efficacy in % after 2^d (mortality)): 67%
- mortality at 3.75 g/ha ([3]; Spodoptera frugiperda, 144 h, after 6 d, read-out: Efficacy in % after 6^d (mortality)): 0%

Compound: Spinetoram
- Efficacy in % after 6^d (mortality) ([3]; 0.032 g ai/ha, after 6 d): 0%
- Efficacy in % after 2^d (mortality) ([3]; 0.08 g ai/ha, after 2 d): 67%
- Efficacy in % after 6^d (mortality) ([2]; 0.08 g ai/ha): 0%
- Efficacy in % after 2^d (mortality) ([2]; 0.4 g ai/ha, after 2 d): 0%

Compound: CNC(=O)c1cc(Cl)cc(C)c1NC(=O)c1cc(Br)nn1-c1ncccc1Cl [Chlorantraniliprole]
- mortality at 0.8 g/ha [4, 5]: 33%
- mortality at 0.8 g/ha ([3]; Spodoptera frugiperda, 48 h, 0.8 g ai/ha, after 2 d, read-out: Efficacy in % after 2^d (mortality)): 67%
- mortality at 0.16 g/ha ([3]; Spodoptera frugiperda, 144 h, 0.16 g ai/ha, after 6 d, read-out: Efficacy in % after 6^d (mortality)): 0%

Compound: CNC(=O)c1cc(C#N)cc(C)c1NC(=O)c1cc(Br)nn1-c1ncccc1Cl [Cyantraniliprole]
- mortality at 4 g/ha ([4]; 48 h, 4 g ai/ha, after 2 d, Chinese cabbage leaf disks, read-out: Efficacy in % after 2^d (mortality)): 0%
- mortality at 0.8 g/ha [4, 5]: 0%

Compound: CNC(=O)Oc1cc(C)c(SC)c(C)c1 [Methiocarb]
- mortality at 10 g/ha ([4]; in Brassica rapa, 144 h, read-out: Efficacy in % after 6^d (mortality)): 50%

Compound: Spinosad
- Efficacy in % after 6^d (mortality) ([3]; 0.8 g ai/ha, after 6 d): 0%
- Efficacy in % after 2^d (mortality) ([3]; 4 g ai/ha, after 2 d): 50%
- Efficacy in % after 6^d (mortality) ([2]; 20 g ai/ha): 0%
